# From patent US8232406B2, “c-MET protein kinase inhibitors” (Vertex Pharmaceuticals Incorporated, priority 2006, dated 2012)
# Target: c-MET (Homo sapiens, UniProt P08581)
# Assay: Ki determination for the inhibition of c-MET (standard radiometric 33P-ATP kinase assay, polyE4Y substrate)
# Type: biochemical
# Settings: 1.0 nM c-Met, 35 μM ATP, 0.5 mg/mL polyE4Y, 20 min; competitive tight-binding fit
# Procedure, shortened: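 Radiometric assay of 33P transfer from 33P-ATP (35 μM) to polyE4Y (0.5 mg/mL) by 1.0 nM c-Met in 100 mM HEPES pH 7.5, 10 mM MgCl2, 25 mM NaCl, 0.01% BSA, 1 mM DTT. TCA-quenched after 20 min, filter-captured, scintillation-counted; Ki fitted to a competitive tight-binding model.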
# Chain of c-MET (P08581 25-1390): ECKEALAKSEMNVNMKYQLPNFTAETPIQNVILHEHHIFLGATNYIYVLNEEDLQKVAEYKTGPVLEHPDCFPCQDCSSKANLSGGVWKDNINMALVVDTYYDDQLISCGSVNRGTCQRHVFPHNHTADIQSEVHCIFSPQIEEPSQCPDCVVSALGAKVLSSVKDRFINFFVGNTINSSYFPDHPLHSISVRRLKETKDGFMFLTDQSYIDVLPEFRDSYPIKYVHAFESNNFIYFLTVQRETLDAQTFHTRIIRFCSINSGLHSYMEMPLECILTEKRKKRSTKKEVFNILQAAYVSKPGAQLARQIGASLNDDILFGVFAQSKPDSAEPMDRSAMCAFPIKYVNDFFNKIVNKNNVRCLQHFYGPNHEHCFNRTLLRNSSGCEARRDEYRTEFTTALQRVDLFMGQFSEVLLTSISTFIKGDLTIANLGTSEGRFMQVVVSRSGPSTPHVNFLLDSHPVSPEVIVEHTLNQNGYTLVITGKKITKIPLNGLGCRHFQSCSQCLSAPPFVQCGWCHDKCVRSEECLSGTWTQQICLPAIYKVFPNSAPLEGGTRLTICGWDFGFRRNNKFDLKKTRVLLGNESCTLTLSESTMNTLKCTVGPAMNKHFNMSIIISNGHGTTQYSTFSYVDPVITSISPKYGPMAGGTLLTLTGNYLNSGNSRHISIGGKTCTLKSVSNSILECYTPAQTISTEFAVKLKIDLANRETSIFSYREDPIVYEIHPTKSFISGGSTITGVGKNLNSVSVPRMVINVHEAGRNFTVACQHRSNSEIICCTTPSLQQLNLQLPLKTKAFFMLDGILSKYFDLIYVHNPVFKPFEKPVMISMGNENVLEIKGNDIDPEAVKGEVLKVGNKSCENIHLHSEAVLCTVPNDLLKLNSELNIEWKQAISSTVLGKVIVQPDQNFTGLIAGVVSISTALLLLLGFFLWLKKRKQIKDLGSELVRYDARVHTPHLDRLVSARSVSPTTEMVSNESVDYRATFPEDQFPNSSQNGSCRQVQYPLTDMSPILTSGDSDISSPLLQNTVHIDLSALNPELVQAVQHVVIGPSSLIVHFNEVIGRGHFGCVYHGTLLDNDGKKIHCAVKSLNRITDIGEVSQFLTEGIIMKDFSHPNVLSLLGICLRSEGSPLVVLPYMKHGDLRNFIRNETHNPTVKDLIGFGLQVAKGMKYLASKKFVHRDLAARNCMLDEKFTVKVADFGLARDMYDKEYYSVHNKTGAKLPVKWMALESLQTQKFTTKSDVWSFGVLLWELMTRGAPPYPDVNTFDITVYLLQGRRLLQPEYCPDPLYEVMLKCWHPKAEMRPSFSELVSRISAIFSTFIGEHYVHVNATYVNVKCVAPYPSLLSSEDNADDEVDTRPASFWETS
row,Ki [nM],SMILES
1,≤ 100,Nc1ncc(C2=CCN(C(=O)C3CCCNC3)CC2)cc1-c1nnnn1-c1cccc(F)c1F (stereo not shown) [I-A-423]
2,≤ 100,CC(=O)Nc1ccc(-c2cnc(N)c(-c3nncn3-c3cccc(F)c3F)n2)cc1 [I-A-11]
3,≤ 100,Nc1ncc(-c2cnn(Cc3ccccc3)c2)cc1-c1nnnn1-c1cccc(F)c1F [I-A-349]
4,≤ 100,Cc1c(Cl)cccc1-n1nnnc1-c1cc(-c2cnn(C3CCNCC3)c2)cnc1N [I-A-624]
5,≤ 100,N#CCC(=O)Nc1ccc(-c2cnc(N)c(-c3nnnn3-c3cccc(F)c3F)c2)cc1 [I-A-334]
6,100 to 1000,CN(CCc1ccccn1)Cc1ccc(-c2cnc(N)c(-c3nnnn3-c3cccc(Cl)c3Cl)c2)cc1 [I-A-102]
7,100 to 1000,Nc1ncc(-c2ccc(NC(=O)Nc3cccnc3)cc2)cc1-c1nnnn1-c1cccc(F)c1F [I-A-278]
8,100 to 1000,CC(C)c1cccc(-c2cnc(N)c(-c3nnnn3-c3cccc(F)c3F)c2)c1 [I-A-236]
9,100 to 1000,Nc1ncc(-c2cccnc2)cc1-c1nnnn1-c1c(F)cccc1F [I-A-608]
10,≤ 100,CC(=O)Nc1cccc(-c2cnc(N)c(-c3nc4cnccc4n3-c3cccc(F)c3F)c2)c1 [I-D-12]
11,≤ 100,Nc1ncc(-c2cnn([C@H]3CCNC3)c2)cc1-c1nnnn1-c1cccc(F)c1F [I-A-412]
12,≤ 100,Nc1ncc(-c2ccc(CN3CCCC3)cc2)cc1-c1nnnn1-c1c(F)cccc1Cl [I-A-616]
13,100 to 1000,Nc1ncc(-c2ccc(CN3CCCC3)cc2)cc1-c1nnnn1-c1cc(Cl)ccc1F [I-A-595]
14,100 to 1000,CN(C(=O)Nc1cccc(-c2cnc(N)c(-c3nnnn3-c3cccc(F)c3F)c2)c1)c1ccccc1 [I-A-274]
15,≤ 100,CN1CCN(c2ccc(-c3cnc(N)c(-c4nncn4-c4cccc(F)c4F)n3)cc2)CC1 [I-A-7]
16,≤ 100,CCNC(=O)Nc1ccc(-c2cnc(N)c(-c3nnnn3-c3cccc(F)c3F)c2)cc1 [I-A-281]
17,≤ 100,CN1C2CCC1CC(n1cc(-c3cnc(N)c(-c4nnnn4-c4cccc(F)c4F)c3)nn1)C2 (stereo not shown) [I-A-484]
18,100 to 1000,Nc1ncc(-c2ccccc2O)cc1-c1nncn1-c1cccc(Cl)c1Cl [I-A-75]
19,100 to 1000,Nc1ncc(-c2cnn(C3CCNCC3)c2)cc1-n1nnnc1-c1cccc(F)c1F [I-E-1]
20,100 to 1000,N#Cc1cc(-c2cnc(N)c(-c3nnnn3-c3cccc(F)c3F)c2)ccc1N1CCCC1 [I-A-336]
21,100 to 1000,N#Cc1ccc(-c2cnc(N)c(-c3nnnn3-c3cccc(Cl)c3Cl)c2)cc1 [I-A-89]

row,Ki [nM],SMILES
1,≤ 100,Nc1ncc(C2=CCN(C(=O)c3ccncc3)CC2)cc1-c1nnnn1-c1cccc(F)c1F [I-A-518]
2,≤ 100,Nc1ncc(-c2cn(C3CCOCC3)nn2)cc1-c1nnnn1-c1cccc(F)c1F [I-A-485]
3,100 to 1000,Nc1ncc(-c2ccc3nccnc3c2)cc1-c1nnnn1-c1cccc(F)c1F [I-A-304]
4,≤ 100,Nc1ncc(-c2ccc(CN3CCCC3)cc2)cc1-c1nccn1-c1cccc(Cl)c1Cl [I-A-393]
5,100 to 1000,CC(=O)Nc1ccc(-c2cnc(N)c(-c3nnnn3-c3c(F)ccc(F)c3Cl)c2)cc1 [I-A-614]
6,≤ 100,Nc1ncc(-c2cncs2)cc1-c1nnnn1-c1cccc(F)c1F [I-A-540]
7,100 to 1000,CC(C)C(=O)Nc1cccc(-c2cnc(N)c(-c3nnnn3-c3cccc(F)c3F)c2)c1 [I-A-260]
8,100 to 1000,Nc1ncc(-c2ccc(N3CCNCC3)cc2)cc1-c1nc2cc(F)ccc2n1-c1cccc(Cl)c1F [I-D-20]
9,≤ 100,Nc1ncc(-c2ccc3[nH]ncc3c2)cc1-c1nnnn1-c1cccc(F)c1F [I-A-347]
10,100 to 1000,CC(=O)Nc1cccc(-c2cnc(N)c(-c3nnnn3-c3cccc(Cl)c3C)c2)c1 [I-A-565]
11,100 to 1000,COC(=O)Nc1ccc(-c2cnc(N)c(-c3nnnn3-c3cccc(F)c3F)c2)cc1 [I-A-352]
12,≤ 100,Nc1ncc(-c2ccc3ncccc3c2)cc1-c1nnnn1-c1cccc(F)c1F [I-A-321]
13,100 to 1000,COCCN(CCOC)Cc1ccc(-c2cnc(N)c(-c3nnnn3-c3cccc(Cl)c3Cl)c2)cc1 [I-A-101]
14,≤ 100,Nc1ncc(-c2cnn([C@@H]3CCOC3)c2)cc1-c1nnnn1-c1cccc(Cl)c1F [I-A-420]
15,≤ 100,Nc1ncc(-c2ccc(CN3CCCC(CO)C3)cc2)cc1-c1nnnn1-c1cccc(Cl)c1Cl (stereo not shown) [I-A-99]
16,≤ 100,CC1(C)CC(C(=O)N2CC=C(c3cnc(N)c(-c4nnnn4-c4cccc(F)c4F)c3)CC2)CCO1 (stereo not shown) [I-A-515]
17,≤ 100,Nc1ncc(-c2ccc(CN3CC[C@@H](O)C3)cc2)cc1-c1nnnn1-c1cccc(F)c1F [I-A-130]
18,≤ 100,COCCOc1ccc(-c2cnc(N)c(-c3nnnn3-c3cccc(F)c3F)c2)cc1OCCOC [I-A-354]
19,≤ 100,Nc1ncc(-c2ccc(F)cc2)cc1-c1nnnn1-c1cccc(F)c1F [I-A-223]
20,≤ 100,Nc1ncc(C2=CCN(C(=O)CC3CCOCC3)CC2)cc1-c1nnnn1-c1cccc(F)c1F [I-A-516]
21,≤ 100,Nc1ncc(-c2ccc(CN3CCCC3)cc2)cc1-c1nnnn1-c1c(F)ccc(F)c1F [I-A-380]

row,Ki [nM],SMILES
1,100 to 1000,Nc1ncc(-c2cccnc2)cc1-c1nnnn1-c1cccc(Cl)c1Cl [I-A-83]
2,≤ 100,Nc1ncc(-c2cnn(C3CCCNCC3)c2)cc1-c1nnnn1-c1cccc(Cl)c1F (stereo not shown) [I-A-651]
3,≤ 100,Nc1ncc(-c2ccc(CN3CCCC3)cc2)cc1-c1nnnn1-c1c(Cl)cccc1Cl [I-A-622]
4,100 to 1000,Nc1ncc(-c2ccc(C(N)C(=O)O)cc2)cc1-c1nnnn1-c1cccc(F)c1F (stereo not shown) [I-A-205]
5,≤ 100,Nc1ncc(-c2cnn([C@@H]3CCNC3)c2)cc1-c1nnnn1-c1cccc(Cl)c1Cl [I-A-408]
6,≤ 100,CCNC(=O)Nc1nc2cc(F)c(-c3cnc(N)c(-c4nncn4-c4cccc(F)c4F)n3)cc2[nH]1 [I-A-57]
7,≤ 100,Nc1ncc(-c2cnn([C@@H]3CCCNC3)c2)nc1-c1nnnn1-c1cccc(F)c1F [I-A-659]
8,≤ 100,CN1CCN(c2ccc(-c3cnc(N)c(-c4nc5cnccc5n4-c4cccc(F)c4F)c3)cc2)CC1 [I-D-2]
9,≤ 100,COC[C@H]1CCCN1Cc1ccc(-c2cnc(N)c(-c3nnnn3-c3cccc(F)c3F)c2)cc1 [I-A-264]
10,≤ 100,CN(C)CCNC(=O)c1ccc(-c2cnc(N)c(-c3nnnn3-c3cccc(Cl)c3Cl)c2)cc1 [I-A-124]
11,≤ 100,CC(c1ccc(-c2cnc(N)c(-c3nnnn3-c3cccc(F)c3F)c2)s1)N1CCCC1 (stereo not shown) [I-A-262]
12,≤ 100,CN(C)C(=O)N1CCC(n2cc(-c3cnc(N)c(-c4nnnn4-c4cccc(Cl)c4F)c3)cn2)CC1 [I-A-445]
13,100 to 1000,CN1CCN(c2ccc(-c3cnc(N)c(-c4nc5cccnc5n4-c4cccc(Cl)c4F)c3)cc2)CC1 [I-D-17]
14,≤ 100,Nc1ncc(-c2cccnc2)cc1-c1nccn1-c1cccc(Cl)c1Cl [I-A-65]
15,≤ 100,CN(C)Cc1ccc(-c2cnc(N)c(-c3nnnn3-c3c(F)ccc(Cl)c3F)c2)cc1 [I-A-377]
16,100 to 1000,Cc1c(F)cccc1-n1nnnc1-c1cc(-c2ccc(CN(C)C)cc2)cnc1N [I-A-577]
17,≤ 100,Nc1ncc(-c2ccsc2)cc1-c1nnnn1-c1cccc(F)c1F [I-A-143]
18,100 to 1000,CC(=O)Nc1ccc(-c2cnc(N)c(-c3nnnn3-c3cc(F)ccc3F)c2)cc1 [I-A-581]
19,≤ 100,Nc1ncc(-c2cnn(CCO)c2)cc1-c1nc2cnccc2n1-c1cccc(F)c1F [I-D-8]
20,≤ 100,CC(C)(O)c1ccc(-c2cnc(N)c(-c3nnnn3-c3cccc(F)c3F)c2)cc1 [I-A-268]
21,≤ 100,Nc1ncc(-c2ccc(OCCN3CCCC3)cc2)cc1-c1nnnn1-c1cccc(F)c1F [I-A-346]

row,Ki [nM],SMILES
1,≤ 100,Nc1ncc(-c2cccc(CN3CCCC3)c2)cc1-c1nnnn1-c1cccc(Cl)c1Cl [I-A-109]
2,≤ 100,Nc1ncc(-c2ccc(CN3CCCC3)cc2)cc1-c1nnnn1-c1cccc(F)c1F [I-A-67]
3,100 to 1000,Cc1nnc(-c2cc(-c3cnn(C4CCNCC4)c3)cnc2N)n1-c1cccc(Cl)c1F [I-A-454]
4,100 to 1000,CN1CCN(c2ccc(-c3cnc(N)c(-c4nccn4-c4cccc(Cl)c4Cl)c3)cc2)CC1 [I-A-402]
5,≤ 100,CC(C)CN(C)Cc1ccc(-c2cnc(N)c(-c3nnnn3-c3cccc(F)c3F)c2)cc1 [I-A-150]
6,≤ 100,COc1cccc(-c2cnc(N)c(-c3nnnn3-c3cccc(F)c3F)c2)c1 [I-A-221]
7,≤ 100,"CN1CCN(Cc2ccc(-c3cnc(N)c(-c4nnnn4-c4cccc(F)c4F)c3)cc2)CC1 [I-A-62, 3-(1-(2,3-Difluorophenyl)-1H-tetrazol-5-yl)-5-(4-((4-methylpiperazin-1-yl)methyl)phenyl)pyridin-2-amine]"
8,100 to 1000,Nc1cccc(-c2cnc(N)c(-c3nncn3-c3cccc(Cl)c3Cl)c2)c1 [I-A-68]
9,100 to 1000,COc1ccc(F)cc1-n1nnnc1-c1cc(-c2cnn(C3CCNCC3)c2)cnc1N [I-A-633]
10,≤ 100,COc1ccc(-c2cnc(N)c(-c3nnnn3-c3cccc(F)c3F)c2)cc1 [I-A-222]
11,100 to 1000,Nc1ncc(-c2cnn([C@@H]3CCOC3)c2)cc1-c1nnnn1-c1cccc(-c2cnn([C@@H]3CCOC3)c2)c1F [I-A-421]
12,≤ 100,Nc1ncc(-c2cnn(C3CCNCC3)c2)cc1-c1nnnn1-c1cccc(F)c1F [I-A-370]
13,≤ 100,Nc1ncc(-c2cnn(C3CCNCC3)c2)nc1-c1nnnn1-c1cccc(F)c1F [I-A-468]
14,100 to 1000,Nc1ncc(-c2ccc(NC(=O)NC3CCCC3)cc2)cc1-c1nnnn1-c1cccc(F)c1F [I-A-333]
15,≤ 100,CC(C)CC(=O)N1CC=C(c2cnc(N)c(-c3nnnn3-c3cccc(F)c3F)c2)CC1 [I-A-513]
16,100 to 1000,CC(=O)Nc1cccc(-c2cnc(N)c(-c3nnnn3-c3cccc(F)c3C)c2)c1 [I-A-564]
17,100 to 1000,Nc1ncc(-c2ccc(NC(=O)CN3CCOCC3)cc2)cc1-c1nnnn1-c1cccc(F)c1F [I-A-163]
18,≤ 100,Nc1cccc(-c2cnc(N)c(-c3nncn3-c3cccc(F)c3F)n2)c1 [I-A-12]
19,≤ 100,Nc1ncc(-c2cnn(C[C@@H]3CCCN3)c2)cc1-c1nnnn1-c1cccc(F)c1F [I-A-500]
